These results are taken from ChEMBL document CHEMBL4385620, “Inhibition of polypeptide N-acetyl-α-galactosaminyltransferases is an underlying mechanism of dietary polyphenols preventing colorectal tumorigenesis” (Bioorg Med Chem, 2019).

Series [1] addresses T1, Polypeptide N-acetylgalactosaminyltransferase 2 (Homo sapiens, UniProt Q10471). As to the kind of experiment: Binding affinity of human recombinant FLAG-tagged ppGalNAcT2 expressed in HEK293 cells assessed as association rate by SPR analysis.
For series [2], the target named is T2, Polypeptide N-acetylgalactosaminyltransferase 3 (Homo sapiens, UniProt Q14435).
T2 sequence (Q14435 whole entry): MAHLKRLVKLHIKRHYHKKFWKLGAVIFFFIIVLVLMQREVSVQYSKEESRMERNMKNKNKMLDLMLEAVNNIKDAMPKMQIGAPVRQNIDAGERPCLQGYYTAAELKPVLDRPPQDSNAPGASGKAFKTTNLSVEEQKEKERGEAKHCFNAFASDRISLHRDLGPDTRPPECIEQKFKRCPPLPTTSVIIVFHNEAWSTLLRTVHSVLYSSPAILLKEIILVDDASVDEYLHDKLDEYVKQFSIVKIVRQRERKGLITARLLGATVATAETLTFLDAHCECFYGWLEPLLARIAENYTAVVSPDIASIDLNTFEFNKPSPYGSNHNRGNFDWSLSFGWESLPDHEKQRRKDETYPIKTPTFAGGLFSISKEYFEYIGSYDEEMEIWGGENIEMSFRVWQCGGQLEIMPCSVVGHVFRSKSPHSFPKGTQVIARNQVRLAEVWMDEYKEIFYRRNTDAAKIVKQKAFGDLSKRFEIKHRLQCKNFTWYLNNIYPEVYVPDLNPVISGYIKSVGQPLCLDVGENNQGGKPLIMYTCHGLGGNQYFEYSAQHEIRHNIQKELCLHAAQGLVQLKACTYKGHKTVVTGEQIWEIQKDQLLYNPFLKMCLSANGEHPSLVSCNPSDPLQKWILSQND
As to the kind of experiment: Inhibition of catalytic activity of ppGalNAcT3 (unknown origin) using EA2 peptide as substrate incubated for 30 mins by HPLC-based enzyme assay.

Series [3] addresses T3, UDP-N-acetylglucosamine--peptide N-acetylglucosaminyltransferase 110 kDa subunit (Homo sapiens, UniProt O15294).
T3 sequence (O15294 whole entry): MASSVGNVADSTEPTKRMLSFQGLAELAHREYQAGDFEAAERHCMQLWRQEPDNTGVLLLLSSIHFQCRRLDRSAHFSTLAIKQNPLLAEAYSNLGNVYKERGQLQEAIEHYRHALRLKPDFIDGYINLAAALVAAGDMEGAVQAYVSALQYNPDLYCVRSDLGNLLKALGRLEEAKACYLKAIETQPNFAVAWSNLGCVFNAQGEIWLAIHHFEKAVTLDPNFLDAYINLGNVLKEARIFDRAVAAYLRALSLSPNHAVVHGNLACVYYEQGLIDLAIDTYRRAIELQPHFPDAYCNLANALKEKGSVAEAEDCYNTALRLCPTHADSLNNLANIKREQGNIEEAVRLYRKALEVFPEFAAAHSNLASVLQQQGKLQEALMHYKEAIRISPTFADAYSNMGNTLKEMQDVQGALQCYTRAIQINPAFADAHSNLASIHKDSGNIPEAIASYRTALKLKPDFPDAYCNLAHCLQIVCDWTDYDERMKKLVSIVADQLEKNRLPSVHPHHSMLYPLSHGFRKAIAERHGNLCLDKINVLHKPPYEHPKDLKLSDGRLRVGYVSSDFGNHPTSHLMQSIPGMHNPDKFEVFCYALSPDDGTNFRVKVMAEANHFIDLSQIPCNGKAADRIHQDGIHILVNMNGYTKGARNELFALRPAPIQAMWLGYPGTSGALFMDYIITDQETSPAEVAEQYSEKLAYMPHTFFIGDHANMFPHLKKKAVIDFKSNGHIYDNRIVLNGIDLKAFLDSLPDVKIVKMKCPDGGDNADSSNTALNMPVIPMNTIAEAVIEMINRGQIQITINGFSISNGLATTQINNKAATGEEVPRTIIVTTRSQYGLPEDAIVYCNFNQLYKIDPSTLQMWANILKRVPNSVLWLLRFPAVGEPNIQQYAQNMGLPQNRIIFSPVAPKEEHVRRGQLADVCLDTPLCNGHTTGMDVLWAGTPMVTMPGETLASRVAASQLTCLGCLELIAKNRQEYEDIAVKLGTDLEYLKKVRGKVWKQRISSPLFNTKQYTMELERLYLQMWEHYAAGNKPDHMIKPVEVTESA
As to the kind of experiment: Inhibition of catalytic activity of OGT (unknown origin) using EA2 peptide as substrate incubated for 30 mins by HPLC-based enzyme assay.

Series [4] concerns the target T1, Polypeptide N-acetylgalactosaminyltransferase 2. As to the kind of experiment: Inhibition of catalytic activity of human recombinant FLAG-tagged ppGalNAcT2 using Muc2 peptide as substrate incubated for 30 mins by HPLC-based enzyme assay.
The target of series [5] is Polypeptide N-acetylgalactosaminyltransferase 2 (Homo sapiens, UniProt Q10471, W282A). As to the kind of experiment: Inhibition of catalytic activity of human recombinant FLAG-tagged ppGalNAcT2 W282A mutant expressed in HEK293 cells using EA2 peptide as substrate by HPLC-based enzyme assay.
Sequence of Polypeptide N-acetylgalactosaminyltransferase 2 (Homo sapiens, UniProt Q10471, W282A) (Q10471 whole entry W282A): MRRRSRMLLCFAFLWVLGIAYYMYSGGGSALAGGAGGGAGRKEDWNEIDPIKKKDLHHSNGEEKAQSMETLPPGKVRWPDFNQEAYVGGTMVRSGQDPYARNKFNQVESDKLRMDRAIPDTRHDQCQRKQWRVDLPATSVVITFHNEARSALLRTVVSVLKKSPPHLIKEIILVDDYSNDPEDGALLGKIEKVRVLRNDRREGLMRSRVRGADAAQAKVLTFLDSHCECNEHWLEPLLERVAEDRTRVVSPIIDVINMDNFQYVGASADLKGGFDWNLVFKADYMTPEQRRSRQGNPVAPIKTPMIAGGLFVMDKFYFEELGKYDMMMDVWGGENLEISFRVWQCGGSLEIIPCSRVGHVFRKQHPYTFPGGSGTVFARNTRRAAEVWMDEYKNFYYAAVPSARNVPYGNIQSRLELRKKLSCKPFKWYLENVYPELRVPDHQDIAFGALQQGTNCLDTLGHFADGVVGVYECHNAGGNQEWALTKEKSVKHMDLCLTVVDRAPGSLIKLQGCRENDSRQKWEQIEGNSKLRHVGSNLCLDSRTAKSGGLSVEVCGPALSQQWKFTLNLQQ
A further series is filed under the species Homo sapiens. As to the kind of experiment: Ratio of IC50 for IC50 for human recombinant FLAG-tagged ppGalNAcT2 W282A mutant to IC50 for human recombinant FLAG-tagged ppGalNAcT2.
Series [6] deals with HT-29. As to the kind of experiment: Effect on ppGalNAcT12 expression level in human HT-29 cells at 40 uM incubated for 48 hrs by Q-PCR analysis. The class given is ADME, cell-based. As to conditions: ht-29, 48 h.
The species named for the next series is Cricetulus griseus. The experiment in a line: Inhibition of ppGalNAcT2 in Chinese hamster ldlD cells assessed as reduction in O-GalNAc glycosylation by measuring metabolic labelled-GalNAz signal at 40 uM incubated for 48 hrs by click chemistry assay. It counts as cell-based.
In series [7] the test system is HT-29. The experiment in a line: Cytotoxicity against human HT-29 cells at 40 uM incubated for 48 hrs by CCK-8 assay. The class given is cell-based. The settings on record: ht-29, 48 h. Background: Tetrazolium assays rely on reduction of a dye to a coloured formazan, in cell work by metabolically active cells.
The subject of the next series is HCT-116. The experiment in a line: Antimigratory activity in human HCT116 cells at 40 uM incubated for 48 hrs by crystal violet staining based method. It counts as functional, cell-based.
A further series deals with RKO. The experiment in a line: Antimigratory activity in human RKO cells at 40 uM incubated for 48 hrs by crystal violet staining based method. The class given is functional, cell-based.
The test system of series [8] is HT-29. As to the kind of experiment: Reduction in PDPN protein expression in human HT-29 cells at 40 uM for 48 hrs by Western blot analysis. It counts as functional, cell-based. In general terms: A western blot detects proteins with antibodies after separation by electrophoresis.

Calls of active or inactive are those of the source. The rule behind the calls is not given here.

T1 sequence (Q10471 whole entry): as the sequence (Q10471 whole entry W282A) above, with A282W counted along it

Take `O=c1oc2c(O)c(O)ccc2c2cc(O)c(O)cc12`: in series [1], the kon is 3532 M⁻¹ s⁻¹. Further, the IC50 was 1.61 µM in series [2], above 100 µM in series [3], 1.14 µM in series [4] and 3.12 µM in series [5]. Also, the Ratio IC50 in the series listed under Homo sapiens was 4. Further, the Activity entry in the series on HT-29 [6] and with HT-29 [7] was “Non-Toxic” throughout. The inhibition entry in the series listed under Cricetulus griseus is “Active”. For the same compound, the result in the series with HCT-116, in the series with RKO and with HT-29 [8] was Active.

The kon is a measure of how fast the partners come together. Broadly, the IC50 is the concentration at which inhibition is half-maximal.
